The text below walks through data of US5157019A, “Serine protease inhibitors” (Monsanto Company, priority 1991, dated 1992).

Where two headings read alike, the source gives them in different places. Ends that are not written are not given here.

Type in all cases: biochemical
One experiment deals with T1, HUMAN SPUTUM ELASTASE (Homo sapiens, UniProt P08246).
T1 construct: HUMAN SPUTUM ELASTASE; purchased Elastin Products Company SE563; host or cells: human sputum (from the product name)
T1 sequence (P08246 30-267): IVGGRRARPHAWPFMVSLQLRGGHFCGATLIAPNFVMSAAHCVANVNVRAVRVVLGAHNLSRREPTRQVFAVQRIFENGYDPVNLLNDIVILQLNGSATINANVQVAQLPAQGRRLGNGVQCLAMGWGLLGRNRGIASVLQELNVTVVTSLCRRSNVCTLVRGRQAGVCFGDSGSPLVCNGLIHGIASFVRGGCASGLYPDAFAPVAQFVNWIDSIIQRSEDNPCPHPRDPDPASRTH
Put plainly: Elastase assay (MeO-Suc-Ala-Pro-Val-pNA). To be noted: 200 μM peptide. Here is the method:
Enzyme used is "HUMAN SPUTUM ELASTASE®" which is an enzyme which is the target protease for α1 antitrypsin from Elastin Products Company, Catalog No. SE563, lot 85071, 875 units/mg as determined by supplier with N-Suc-Ala-Ala-Ala-pNA; prepared at 0.2 mg/mL in 0.1M Tris·HCl, pH 8.8 at 37 degrees C. An amount of enzyme is used to give approximately 0.1 change in Absorbance/min; which in this assay was 1 μg.
The substrate is MeO-Suc-Ala-Pro-Val-pNA, Sigma Catalog No. M-4765. About 50 mg of the substrate is dissolved in 1 ml of 1-methyl-2-pyrrolidinone and diluted to 33 mls. with 0.1M Tris-HCl, pH 7.5, containing 0.5M NaCl, and 0.01 wt % sodium azide.
Peptide solutions are prepared at 500 μM, using 1.5% of the final volume of DMSO first and diluting with distilled water (DW) or 0.1M Tris.HCl, pH 8.8 at 37 degrees C. [formula]

For another experiment, the target named is T2, C1s (Homo sapiens, UniProt P09871).
T2 construct: prepared from pooled human plasma; from tissue; host or cells: pooled human plasma
T2 sequence (P09871 16-688): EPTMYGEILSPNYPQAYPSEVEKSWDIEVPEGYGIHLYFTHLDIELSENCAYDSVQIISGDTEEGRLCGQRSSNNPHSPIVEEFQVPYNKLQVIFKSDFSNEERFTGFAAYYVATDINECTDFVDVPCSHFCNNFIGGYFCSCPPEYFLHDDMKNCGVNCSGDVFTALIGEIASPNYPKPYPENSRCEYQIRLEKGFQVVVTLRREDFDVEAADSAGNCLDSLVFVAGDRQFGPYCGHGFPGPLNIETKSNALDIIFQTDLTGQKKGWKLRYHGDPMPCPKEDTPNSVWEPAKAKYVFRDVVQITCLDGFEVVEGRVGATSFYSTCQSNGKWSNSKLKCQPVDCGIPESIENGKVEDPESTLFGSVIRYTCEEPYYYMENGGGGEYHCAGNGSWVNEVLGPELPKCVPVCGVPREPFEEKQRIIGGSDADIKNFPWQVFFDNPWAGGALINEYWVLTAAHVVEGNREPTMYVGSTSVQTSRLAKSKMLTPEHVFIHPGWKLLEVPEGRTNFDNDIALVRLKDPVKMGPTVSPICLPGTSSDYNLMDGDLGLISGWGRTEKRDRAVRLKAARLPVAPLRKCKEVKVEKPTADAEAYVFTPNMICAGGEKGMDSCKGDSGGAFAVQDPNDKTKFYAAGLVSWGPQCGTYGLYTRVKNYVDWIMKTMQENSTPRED
In words: C1s assay by inhibition of fluid phase C4 activation. Here is the method:
Highly purified C3, C4, Factor D, Factor B, and C1s were prepared from pooled human plasma. Factors B and C4 were radiolabeled by periodate oxidation of sialic acid residues, followed by reduction with tritiated sodium borohydride. In a representative experiment, a solution of 1.2 mg of factor B in 1.8 ml of PBS was treated with 70 μl of 0.1M NaIO4. After 10 min incubation on ice, excess reagent was removed by filtration over "SEPHADEX®" which is a matrix for gel chromatography (1.0 cm×20 cm). To the protein pool was added 60 μl of NaB[^3 H]4 solution and incubated for 30 min on ice. Labeled protein was separated from excess reagent by desalting or dialysis. Human C4 was radiolabeled in the same manner. Radiolabeled proteins were stored at -70° C. in PBS. The specific radioactivity of ^3 H factor B was about 10,000 CPM/μg and that of ^3 H-C4 was 5,000 CPM/μg.
The cleavage of C4 was studied by incubating 10 μg of tritiated C4 with 3-5 ng of C1s at 37° C. for 30 min in 100 μl of PBS (pH 7.10) containing different concentrations of inhibitor. The reaction was stopped by the addition of 2-mercaptoethanol. The extent of cleavage was analyzed by SDS-polyacrylamide gel electrophoresis. The stained bands corresponding to C4α and C4α' were cut out and sliced. The radioactivity of the fragments was measured by liquid scintillation counting. The percent cleavage of the reaction was calculated as follows: [formula]
Electrophoresis was carried out under reducing conditions in the Laemmli system using slab gel of 8% polyacrylamide. The gels were stained and destained (Fairbanks et al. Biochemistry (1971) 10:2606).
The percent inhibition of the reaction was calculated according to the following relationship: [formula]
A: % cleavage without inhibitor
B: % cleavage with inhibitor
The concentration inducing 50% inhibition was obtained by plotting the percent inhibition on a probability graph (National Blank Book Co., No. 12-083) on the ordinate and the log of the inhibitor concentration on the abscissa. From this graph, a 50% inhibition concentration IC50 was obtained and this value was employed to express the activity.

The next experiment has as its target T3, Plasma Kallikrein (Homo sapiens, UniProt P03952).
T3 construct: purchased Sigma K-3126
In words: Plasma kallikrein assay (Chromozym PK). As to conditions: for Kallikrein % inhibition: 50 μM peptide; for inhibition at 100 µM: 100 μM peptide. Here is the method: Buffer 150 mM Tris·HCl, pH 8.0
Substrate Benzyl-Pro-Phe-Arg-pNa (Chromozym PK, Boeringer Mannheim), 10 mM in deionized water.
Enzyme Plasma Kallikrein (Sigma, K-3126), 0.0312 μ/ml. Used undiluted.
Inhibitor Dissolved at desired concentrations in deionized water or DMSO plus deionized water depending on solubility.
4. Incubate mixture for 5 min at 25° C.
6. Measure rate spectrophotometrically at […] at 25° C.
2. Add appropriate volume of peptide solution
3. Add adjusted volume of buffer compensating for volume of peptide solution.
4. Add an adjusted volume of DMSO to maintain a final amount of 25 μl in the assay
5. Incubate mixture for 5 min at 25° C.
7. Measure rate spectrophotometrically at […] at 25° C.
Inhibition (%) is calculated in the same manner as in previous assays.

Where [1] appears, read: Tables VI and VIII, % 50, read-out: C1s, μM concentration listed for 50 % inhibition.

T3 sequence (P03952 20-638): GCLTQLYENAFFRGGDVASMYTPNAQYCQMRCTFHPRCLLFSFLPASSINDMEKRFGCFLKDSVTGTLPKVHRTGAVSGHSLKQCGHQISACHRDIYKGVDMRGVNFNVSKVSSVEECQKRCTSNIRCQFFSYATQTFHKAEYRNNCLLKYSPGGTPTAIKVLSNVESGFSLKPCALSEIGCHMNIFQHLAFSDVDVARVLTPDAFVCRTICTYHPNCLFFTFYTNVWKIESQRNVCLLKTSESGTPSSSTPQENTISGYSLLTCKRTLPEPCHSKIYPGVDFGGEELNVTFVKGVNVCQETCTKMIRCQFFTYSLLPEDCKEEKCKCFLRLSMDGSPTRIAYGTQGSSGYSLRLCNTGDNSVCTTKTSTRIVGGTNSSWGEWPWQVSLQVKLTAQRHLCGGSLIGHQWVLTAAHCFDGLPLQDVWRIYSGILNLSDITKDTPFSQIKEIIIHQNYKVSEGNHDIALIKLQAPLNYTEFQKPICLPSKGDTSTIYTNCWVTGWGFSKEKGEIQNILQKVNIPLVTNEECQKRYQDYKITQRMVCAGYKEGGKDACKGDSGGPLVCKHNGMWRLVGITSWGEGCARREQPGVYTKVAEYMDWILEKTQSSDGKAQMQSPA

As a reminder, the inhibition is the relative decrease from the control value, in per cent. Read a high inhibition as a response far below the control. Turning to `CC[C@H](C)[C@H](NC(=O)[C@H](CC(C)C)NC(=O)[C@H](Cc1ccccc1)NC(=O)[C@@H](NC(=O)[C@H](Cc1ccccc1)NC(=O)[C@@H]1CCCN1C(=O)[C@H](CCCCN)NC(=O)[C@H](CC(N)=O)NC(=O)[C@H](Cc1ccccc1)NC(=O)[C@H](CCCCN)NC(=O)[C@@H](NC(=O)[C@H](CCC(=O)O)NC(=O)[C@@H]1CCCN1C(=O)[C@@H]1CCCN1)C(C)C)C(C)C)C(=O)O` [Peptide 1], on HUMAN SPUTUM ELASTASE, the “Elastase Inhibition” value was “no inhibitory activity” and at 200 µM the inhibition was 0%. Moreover, testing at 200 µM on C1s (200 μM peptide) gave an inhibition of 0%.
In turn, “AGRSLNPNRVTFKANRPFLVFIREVPLNTIIFLGRVANP [Peptide 27]” gave an inhibition at 200 µM on HUMAN SPUTUM ELASTASE of 0%. Besides, the IC50 on C1s (Table X, μM concentration at which protease was inhibited 50%, read-out: IC50 C1S) is 12 µM.
With IVRFNRPFLLII [Peptide 3], testing at 200 µM against HUMAN SPUTUM ELASTASE gave an inhibition of 0%. Besides, at C1s (setting [1]), the IC50 is 55 µM.
For “IVRFNRPFLLIIVPTDTQNIFFLSKVTNPSKPR [Peptide 22]”, the Kallikrein % inhibition at Plasma Kallikrein was 58%. In addition, the “Elastase Inhibition” value at HUMAN SPUTUM ELASTASE was 0%. For the same molecule, the IC50 on C1s (setting [1]) was 6 µM.
Regarding PNRVTFKANRPFLVFI [Peptide 2], the inhibition at 100 µM against Plasma Kallikrein worked out at 21%. In addition, at 200 µM the inhibition on HUMAN SPUTUM ELASTASE was 0%. On C1s (setting [1]), the IC50 worked out at 34 µM.
The matching figures for “RVTFKANRPFLVFIREVPLNTIIFLGRVANP [Peptide 21]”: 55%, 0% and 6 µM.
In turn, “VKFNKPFVFLLIEQNTKSPLFLGKVVNPTQK [Peptide 20]” showed a Kallikrein % inhibition at Plasma Kallikrein of 0%. For the same molecule, the “Elastase Inhibition” value at HUMAN SPUTUM ELASTASE is listed as 0%. In addition, the IC50 on C1s (setting [1]) stood at 12 µM.
